We go through 3 compounds from patent US6596499B2, “Membrane molecule indicator compositions and methods” (The Netherlands Cancer Institute, priority 2000, dated 2003).

One test deals with PLC. The format is cell-based, mouse.
Another test concerns N1E-115 cells. As to conditions: N1E-115 and other cells; cited from earlier work.

neurokinin A [NKA]: the “desensitization of PLC activation on repeated stimulation” value in the test with PLC is “incremental partial homologous desensitization”.
For `NCCc1c[nH]cn1` [histamine], in the test with PLC, the “duration of translocation response (long-lasting)” value was no less than 15 min and the translocation amplitude is listed as 40 % of BK-induced peak values.
For the compound `CCCCCCCC/C=C\CCCCCCCC(=O)OCC(O)COP(=O)(O)O` (centres unmarked) [LPA, 1-oleoyl LPA], in the test with N1E-115 cells, the “time for neurites to retract and cell soma to round up” value is no more than 60 s. In addition, the translocation amplitude in the test on PLC is on record as 25 % of BK response control values.
